Source: EP4733298A1, “NOVEL TRPM4 ANTAGONISTS AND MEDICAL USE THEREOF” (Universitätsklinikum Hamburg-Eppendorf, priority 2024, dated 2026)

What was measured:
[1] = biological target: T1, human TRPM4 (Homo sapiens, UniProt Q8TD43); test: QPatch assay (automated patch clamp), TRPM4; type: cell-based; conditions: human TRPM4-expressing HEK293 cells, read-out: TRP M4 IC50
T1 construct: host or cells: HEK293, stably expressing
Procedure: QPatchHTX, an automated electrophysiology platform, was used in single hole mode. One day before use human TRPM4- or TRPM5-expressing HEK293 cells were seeded in a T75 flask at a density of 53k cells per cm^2 and at passages < 23. […] The extracellular solution was (in mM): CaCl2 (7), MgCl2 (2), KCl (5), HEPES (10), NaCl (70), NMDG (70); pH 7.4 with NaOH. The intracellular solution was (in mM): HEPES (10), NMDG (100), NaCl (50), EGTA (20), MgCl2 (1), CaCl2 (21); pH 7.2 with HCl. […] This protocol was repeated every 7 seconds. […] FFA was used as reference compound and applied cumulatively with each concentration incubating at a minimum of 20 voltage protocol runs (140 seconds) with the current after addition of FFA being calculated as full block. […] Each compound was measured at least 3 time independently.

[2] = biological target: T2, norepinephrine transporter (h) (antagonist radioligand) (Homo sapiens, UniProt P23975); test: In vitro pharmacology (SafetyScreen44), norepinephrine transporter binding; conditions: Ref. CMP protriptyline, read-out: Inhibiton (%) norepinephrine transporter (h) (antagonist radioligand)
T2 construct: purchased Eurofins Cerep Safetyscreen 44 Panel; Study ID FR095-0009609
T2 sequence (P23975 whole entry): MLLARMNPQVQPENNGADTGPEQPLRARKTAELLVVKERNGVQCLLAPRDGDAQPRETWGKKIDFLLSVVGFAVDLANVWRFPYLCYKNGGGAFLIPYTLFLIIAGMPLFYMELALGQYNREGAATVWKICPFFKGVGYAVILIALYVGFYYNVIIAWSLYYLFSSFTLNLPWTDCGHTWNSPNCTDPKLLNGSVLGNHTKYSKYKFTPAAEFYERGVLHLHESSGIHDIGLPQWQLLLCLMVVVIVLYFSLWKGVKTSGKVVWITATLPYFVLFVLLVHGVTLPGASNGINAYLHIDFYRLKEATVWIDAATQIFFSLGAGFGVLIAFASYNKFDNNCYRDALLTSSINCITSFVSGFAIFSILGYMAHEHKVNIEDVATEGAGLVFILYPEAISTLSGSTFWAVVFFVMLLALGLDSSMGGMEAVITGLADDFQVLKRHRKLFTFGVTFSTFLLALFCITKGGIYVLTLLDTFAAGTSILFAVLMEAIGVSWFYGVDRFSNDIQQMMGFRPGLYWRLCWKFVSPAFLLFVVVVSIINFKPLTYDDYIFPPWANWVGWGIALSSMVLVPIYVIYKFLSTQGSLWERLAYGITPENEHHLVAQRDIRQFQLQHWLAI
Procedure: (§1) In vitro assays were used to test absorption, distribution, metabolism, excretion and toxicity (ADMET) parameters for selected compounds. Compound absorption was assessed using parallel artificial membrane permeability (PAMPA) and Caco-2 cell permeability assays (cut-off criterion > 2 × 10^-6 cm s^-1). Compound toxicity was evaluated by measuring inhibition of cytochrome P450 enzymes (CYP), the potassium channel hERG, and TRPM5, with all parameters meeting acceptable criteria (Table 1). To assess potential off-target activity of the compounds that could be relevant for safety in humans, in vitro pharmacology tests using the commercially available and widely used SafetyScreen44 interaction panel^60 covering eight protein families were conducted (Tables 2 and 3). The lack of off-target activities on hERG channels and in vitro pharmacology profiles are promising and consistent with absence of toxicity during in vivo pharmacokinetic assessments, see below. Table 1. In vitro ADMET profile of Series 1 compounds.
(§2) Table 2. In vitro pharmacology profile of representative compounds disclosed herein, i.e. of benzoxazoles according to Formula (I) (CMP 343 and 354). Only inhibitions above 50% relative to the reference compound are shown and considered active. […]

[3] = biological target: T3, 5-HT2A (h) (agonist radioligand) (Homo sapiens, UniProt P28223); test: In vitro pharmacology (SafetyScreen44), 5-HT2A binding; conditions: Ref. CMP (±)DOI, read-out: Inhibiton (%) 5-HT2A (h) (agonist radioligand)
T3 construct: purchased Eurofins Cerep Safetyscreen 44 Panel; Study ID FR095-0009609
T3 sequence (P28223 whole entry): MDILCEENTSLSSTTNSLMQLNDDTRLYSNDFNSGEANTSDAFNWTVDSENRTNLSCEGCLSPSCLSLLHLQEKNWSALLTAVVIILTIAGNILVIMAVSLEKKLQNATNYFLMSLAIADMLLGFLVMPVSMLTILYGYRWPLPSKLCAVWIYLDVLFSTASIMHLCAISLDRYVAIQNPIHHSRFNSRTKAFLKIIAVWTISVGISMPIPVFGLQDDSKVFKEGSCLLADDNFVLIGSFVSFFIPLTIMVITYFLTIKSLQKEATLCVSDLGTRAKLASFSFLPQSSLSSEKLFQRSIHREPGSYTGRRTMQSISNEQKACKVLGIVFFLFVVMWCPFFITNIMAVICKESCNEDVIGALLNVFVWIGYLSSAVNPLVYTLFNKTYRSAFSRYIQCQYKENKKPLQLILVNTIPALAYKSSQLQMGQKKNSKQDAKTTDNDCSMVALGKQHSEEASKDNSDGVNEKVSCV
Procedure: as §1, §2

[4] = biological target: T4, 5-HT2B (h) (agonist radioligand) (Homo sapiens, UniProt P41595); test: In vitro pharmacology (SafetyScreen44), 5-HT2B binding; conditions: Ref. CMP (±)DOI, read-out: Inhibiton (%) 5-HT2B (h) (agonist radioligand)
T4 construct: purchased Eurofins Cerep Safetyscreen 44 Panel; Study ID FR095-0009609
T4 sequence (P41595 whole entry): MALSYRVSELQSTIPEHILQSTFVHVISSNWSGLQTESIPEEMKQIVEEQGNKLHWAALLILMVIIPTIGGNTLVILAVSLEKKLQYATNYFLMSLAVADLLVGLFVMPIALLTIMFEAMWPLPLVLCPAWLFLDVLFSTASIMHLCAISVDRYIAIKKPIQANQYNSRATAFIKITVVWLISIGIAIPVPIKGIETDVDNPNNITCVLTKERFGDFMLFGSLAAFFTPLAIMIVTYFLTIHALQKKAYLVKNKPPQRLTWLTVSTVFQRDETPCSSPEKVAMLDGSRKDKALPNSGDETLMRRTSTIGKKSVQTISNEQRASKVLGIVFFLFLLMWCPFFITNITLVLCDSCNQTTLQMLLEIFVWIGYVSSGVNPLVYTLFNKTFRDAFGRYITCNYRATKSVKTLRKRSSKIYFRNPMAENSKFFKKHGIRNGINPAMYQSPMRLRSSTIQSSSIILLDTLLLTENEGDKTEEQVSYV
Procedure: as §1, §2

[5] = biological target: T5, dopamine transporter (h) (antagonist radioligand) (Homo sapiens, UniProt Q01959); test: In vitro pharmacology (SafetyScreen44), dopamine transporter binding; conditions: Ref. CMP BTCP, read-out: Inhibiton (%) dopamine transporter (h) (antagonist radioligand)
T5 construct: purchased Eurofins Cerep Safetyscreen 44 Panel; Study ID FR095-0009609
T5 sequence (Q01959 whole entry): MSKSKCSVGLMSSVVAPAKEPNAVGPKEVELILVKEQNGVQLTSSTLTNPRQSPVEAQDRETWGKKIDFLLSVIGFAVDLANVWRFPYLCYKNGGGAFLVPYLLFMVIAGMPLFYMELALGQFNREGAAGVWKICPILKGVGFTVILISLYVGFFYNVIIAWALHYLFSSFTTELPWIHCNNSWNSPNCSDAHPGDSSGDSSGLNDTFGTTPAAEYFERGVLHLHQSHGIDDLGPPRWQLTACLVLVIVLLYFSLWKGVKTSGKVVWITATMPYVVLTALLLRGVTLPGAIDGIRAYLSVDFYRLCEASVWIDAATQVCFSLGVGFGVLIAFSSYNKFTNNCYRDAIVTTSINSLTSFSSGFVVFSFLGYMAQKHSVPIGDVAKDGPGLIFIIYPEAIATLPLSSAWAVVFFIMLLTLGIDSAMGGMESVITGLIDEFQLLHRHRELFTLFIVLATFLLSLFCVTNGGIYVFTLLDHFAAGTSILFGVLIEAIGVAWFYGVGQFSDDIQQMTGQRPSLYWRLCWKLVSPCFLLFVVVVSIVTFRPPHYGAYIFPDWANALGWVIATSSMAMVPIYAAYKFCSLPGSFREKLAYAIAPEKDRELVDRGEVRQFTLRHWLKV
Procedure: as §1, §2

[6] = biological target: T6, COX1 (h) (Homo sapiens, UniProt P23219); test: In vitro pharmacology (SafetyScreen44), COX1; type: biochemical; conditions: Ref. CMP Diclofenac, read-out: Inhibiton (%) COX1 (h)
T6 construct: purchased Eurofins Cerep Safetyscreen 44 Panel; Study ID FR095-0009609
T6 sequence (P23219 24-599): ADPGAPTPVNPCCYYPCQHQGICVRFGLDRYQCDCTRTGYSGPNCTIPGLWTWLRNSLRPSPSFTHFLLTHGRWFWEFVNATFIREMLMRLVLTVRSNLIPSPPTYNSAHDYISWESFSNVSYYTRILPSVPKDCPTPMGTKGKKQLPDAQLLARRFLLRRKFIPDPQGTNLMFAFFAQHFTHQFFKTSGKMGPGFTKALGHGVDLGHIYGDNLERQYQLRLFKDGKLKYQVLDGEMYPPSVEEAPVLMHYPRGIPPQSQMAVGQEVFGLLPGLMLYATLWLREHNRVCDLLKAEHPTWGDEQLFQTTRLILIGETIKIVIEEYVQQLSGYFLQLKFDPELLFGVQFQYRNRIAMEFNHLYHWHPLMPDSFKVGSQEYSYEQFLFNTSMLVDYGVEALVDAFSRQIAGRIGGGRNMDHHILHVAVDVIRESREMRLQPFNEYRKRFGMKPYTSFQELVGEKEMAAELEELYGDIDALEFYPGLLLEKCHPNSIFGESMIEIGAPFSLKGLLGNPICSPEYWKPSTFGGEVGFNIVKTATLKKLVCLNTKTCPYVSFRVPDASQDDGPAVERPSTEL
Procedure: as §1, §2

[7] = biological target: T7, kappa (h) (KOP) (agonist radioligand) (Homo sapiens, UniProt P41145); test: In vitro pharmacology (SafetyScreen44), kappa opioid receptor binding; conditions: Ref. CMP U50488, read-out: Inhibiton (%) kappa (h) (KOP) (agonist radioligand)
T7 construct: purchased Eurofins Cerep Safetyscreen 44 Panel; Study ID FR095-0009609
T7 sequence (P41145 whole entry): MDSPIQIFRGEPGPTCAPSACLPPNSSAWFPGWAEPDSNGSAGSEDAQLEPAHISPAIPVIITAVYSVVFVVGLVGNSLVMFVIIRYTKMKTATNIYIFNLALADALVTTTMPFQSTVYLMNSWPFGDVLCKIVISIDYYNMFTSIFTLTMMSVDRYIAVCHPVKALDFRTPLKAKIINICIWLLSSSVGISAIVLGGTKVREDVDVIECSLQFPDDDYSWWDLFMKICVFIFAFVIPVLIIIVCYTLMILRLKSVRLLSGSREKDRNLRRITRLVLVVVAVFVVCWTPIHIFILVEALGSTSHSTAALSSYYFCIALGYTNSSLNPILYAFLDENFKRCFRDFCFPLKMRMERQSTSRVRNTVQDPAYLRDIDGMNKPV
Procedure: as §1, §2

T1 sequence (Q8TD43 whole entry): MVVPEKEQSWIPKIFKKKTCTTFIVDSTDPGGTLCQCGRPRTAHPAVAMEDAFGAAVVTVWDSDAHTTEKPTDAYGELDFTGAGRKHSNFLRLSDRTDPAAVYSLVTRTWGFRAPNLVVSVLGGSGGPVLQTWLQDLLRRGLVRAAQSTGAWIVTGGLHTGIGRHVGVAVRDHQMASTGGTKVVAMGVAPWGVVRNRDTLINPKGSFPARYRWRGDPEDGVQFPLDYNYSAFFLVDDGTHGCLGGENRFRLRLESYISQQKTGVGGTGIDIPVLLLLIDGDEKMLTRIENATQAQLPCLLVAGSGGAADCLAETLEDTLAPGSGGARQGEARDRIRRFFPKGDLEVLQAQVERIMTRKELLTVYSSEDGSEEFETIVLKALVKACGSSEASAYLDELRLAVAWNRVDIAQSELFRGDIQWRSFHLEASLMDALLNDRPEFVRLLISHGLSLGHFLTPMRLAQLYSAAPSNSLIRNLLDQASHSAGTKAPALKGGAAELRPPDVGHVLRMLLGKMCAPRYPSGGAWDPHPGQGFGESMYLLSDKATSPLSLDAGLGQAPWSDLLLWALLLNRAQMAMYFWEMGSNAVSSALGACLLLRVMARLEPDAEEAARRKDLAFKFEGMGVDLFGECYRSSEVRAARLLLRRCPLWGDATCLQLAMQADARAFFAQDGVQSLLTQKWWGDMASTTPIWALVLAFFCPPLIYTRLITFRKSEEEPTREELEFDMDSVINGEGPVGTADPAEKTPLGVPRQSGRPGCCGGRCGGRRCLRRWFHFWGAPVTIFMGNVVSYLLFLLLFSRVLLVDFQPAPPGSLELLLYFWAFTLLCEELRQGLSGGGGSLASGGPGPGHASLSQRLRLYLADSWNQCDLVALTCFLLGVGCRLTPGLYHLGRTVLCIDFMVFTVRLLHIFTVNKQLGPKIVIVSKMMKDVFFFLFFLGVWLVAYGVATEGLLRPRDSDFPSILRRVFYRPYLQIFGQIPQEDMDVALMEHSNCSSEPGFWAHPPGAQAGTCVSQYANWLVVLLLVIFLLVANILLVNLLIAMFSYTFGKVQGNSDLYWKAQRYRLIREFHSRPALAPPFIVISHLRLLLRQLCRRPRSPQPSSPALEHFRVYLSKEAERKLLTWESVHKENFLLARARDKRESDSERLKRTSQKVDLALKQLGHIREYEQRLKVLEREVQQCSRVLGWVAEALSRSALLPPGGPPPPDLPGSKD

Question: With `Cc1noc(-c2csc(S(=O)(=O)Nc3ccccc3C(F)(F)F)c2)c1C` [CMP157] as the compound, how does the IC50 [1] read?
Answer: 630 nM

Question: For `Cc1ccc(-c2ccccc2NCc2nc3ccccc3o2)s1` [CMP354], which inhibition at 5 µM [2] is on record?
Answer: 74%

Question: And the inhibition at 5 µM [3]?
Answer: 73%

Question: What about the inhibition at 5 µM [4] of the same compound?
Answer: 65%

Question: What about the inhibition at 5 µM [5] of the same compound?
Answer: 64%

Question: `Fc1cccc(-c2ccccc2NCc2nc3ccccc3o2)c1` [CMP343] was tested. Which inhibition at 5 µM [2] did it give?
Answer: 78%

Question: And the inhibition at 5 µM [3]?
Answer: 51%

Question: And the inhibition at 5 µM [6]?
Answer: 56%

Question: And the inhibition at 5 µM [7]?
Answer: 63%

Question: What about the inhibition at 5 µM [4] of the same compound?
Answer: 70%

Question: What about the inhibition at 5 µM [5] of the same compound?
Answer: 70%
